What was measured:
Type in all cases: in vivo
[1] = system: waterhemp_RES2 (ALS & HPPD resistant common waterhemp, Amaranthus rudis); assay: Test E greenhouse herbicide test, postemergence
In short: (§1)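 Seedlings were raised in pots of peat moss and vermiculite medium with starter nutrients until they reached the 1- to 4-leaf stage. They were then treated postemergence and held in a greenhouse for 14–21 d. Finally, response was scored visually on a 0–100 control scale.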

[2] = system: waterhemp_RES1 (ALS & Triazine resistant common waterhemp, Amaranthus rudis); assay: Test E greenhouse herbicide test, postemergence
In short: as §1

[3] = system: waterhemp (common waterhemp, Amaranthus rudis); assay: Test E greenhouse herbicide test, pre- and postemergence
In short: (§2)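 Herbicidal effect was judged by eye relative to untreated plants 14 to 21 d after spraying, using 0 for no effect and 100 for complete control. Preemergence sprays went onto freshly seeded silt loam; postemergence sprays onto 2–18 cm seedlings.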

[4] = system: beggarticks (hairy beggarticks, Bidens pilosa); assay: as above
In short: as §2

[5] = system: field bindweed (Convolvulus arvensis); assay: as above
In short: as §2

[6] = system: johnsongrass (Sorghum halepense); assay: as above; details: Preemergence
In short: as §2

[7] = system: momingglory (Ipomoea coccinea); assay: as above; details: Preemergence
In short: as §2

[8] = system: soybean (Glycine max); assay: as above
In short: as §2

[9] = system: nutsedge, yellow (yellow nutsedge, Cyperus esculentus); assay: as above; details: Preemergence
In short: as §2

[10] = system: ragweed (common ragweed, Ambrosia elatior); assay: as above
In short: as §2

[11] = system: pigweed, palmer (palmer pigweed, Amaranthus palmeri); assay: as above
In short: as §2

[12] = system: dayflower (Virginia (VA) dayflower, Commelina virginica); assay: as above
In short: as §2

[13] = 31 g ai/ha, visual, scale 0 no effect to 100 complete control
[14] = 125 g ai/ha, scale 0 to 100 (0 no effect, 100 complete control)
[15] = 250 g ai/ha, scale 0 to 100 (0 no effect, 100 complete control)
[16] = 125 g ai/ha, Postemergence, scale 0 to 100 (0 no effect, 100 complete control)
[17] = 125 g ai/ha, Preemergence, scale 0 to 100 (0 no effect, 100 complete control)
[18] = 250 g ai/ha, Postemergence, scale 0 to 100 (0 no effect, 100 complete control)
[19] = Postemergence, 31 g ai/ha, visual, scale 0 no effect to 100 complete control
[20] = Preemergence, 31 g ai/ha, scale 0 to 100, 0 no effect, 100 complete control
[21] = Preemergence, 250 g ai/ha, visual, scale 0 no effect to 100 complete control
[22] = 62 g ai/ha, Postemergence, scale 0 to 100 (0 no effect, 100 complete control)
[23] = 62 g ai/ha, Preemergence, scale 0 to 100 (0 no effect, 100 complete control)
[24] = 31 g ai/ha, scale 0 to 100, 0 no effect, 100 complete control
[25] = 250 g ai/ha, visual, scale 0 no effect to 100 complete control

SMILES: CC(=O)Oc1c(C)nn(C)c(=O)c1-c1c(C)cc(C)c2ccccc12 [Compound 153]
- Plant response rating, Waterhemp_RES2 [1, 13]: 10
- Plant response rating, Waterhemp_RES2 [1, 14]: 30
- Plant response rating, Waterhemp_RES2 [1, 15]: 50
- Plant response rating, Waterhemp_RES1 [2, 13]: 50
- Plant response rating, Waterhemp_RES1 [2, 14]: 50
- Plant response rating, Waterhemp_RES1 [2, 15]: 60
- Plant response rating, Waterhemp [3, 16]: 50
- Plant response rating, Waterhemp [3, 17]: 85
- Plant response rating, Waterhemp [3, 18]: 75
- Plant response rating, Waterhemp [3, 19]: 50
- Plant response rating, Waterhemp [3, 20]: 60
- Plant response rating, Waterhemp [3, 21]: 100
- Plant response rating, Beggarticks [4, 22]: 100
- Plant response rating, Beggarticks [4, 23]: 100
- Plant response rating, Beggarticks [4, 16]: 100
- Plant response rating, Beggarticks [4, 17]: 100
- Plant response rating, Beggarticks [4, 18]: 100
- Plant response rating, Beggarticks [4, 19]: 100
- Plant response rating, Beggarticks [4, 20]: 100
- Plant response rating, Beggarticks [4, 21]: 100
- Plant response rating, Field Bindweed [5, 22]: 90
- Plant response rating, Field Bindweed [5, 23]: 100
- Plant response rating, Field Bindweed [5, 16]: 100
- Plant response rating, Field Bindweed [5, 17]: 100
- Plant response rating, Field Bindweed [5, 18]: 95
- Plant response rating, Field Bindweed [5, 19]: 80
- Plant response rating, Field Bindweed [5, 20]: 90
- Plant response rating, Field Bindweed [5, 21]: 100
- Plant response rating, Johnsongrass [6, 24]: 0
- Plant response rating, Johnsongrass [6, 25]: 60
- Plant response rating, Morningglory [7, 14]: 90
- Plant response rating, Morningglory [7, 24]: 85
- Plant response rating, Morningglory [7, 25]: 100
- Plant response rating, Soybean [8, 16]: 10
- Plant response rating, Soybean [8, 17]: 30
- Plant response rating, Soybean [8, 18]: 25
- Plant response rating, Soybean [8, 19]: 0
- Plant response rating, Soybean [8, 20]: 30
- Plant response rating, Nutsedge, Yellow [9, 14]: 80
- Plant response rating, Nutsedge, Yellow [9, 24]: 50
- Plant response rating, Nutsedge, Yellow [9, 25]: 95
- Plant response rating, Ragweed [10, 22]: 70
- Plant response rating, Ragweed [10, 16]: 80
- Plant response rating, Ragweed [10, 17]: 95
- Plant response rating, Ragweed [10, 18]: 90
- Plant response rating, Ragweed [10, 19]: 75
- Plant response rating, Ragweed [10, 20]: 100
- Plant response rating, Ragweed [10, 21]: 100
- Plant response rating, Pigweed, Palmer [11, 22]: 20
- Plant response rating, Pigweed, Palmer [11, 16]: 30
- Plant response rating, Pigweed, Palmer [11, 17]: 60
- Plant response rating, Pigweed, Palmer [11, 18]: 40
- Plant response rating, Pigweed, Palmer [11, 19]: 20
- Plant response rating, Pigweed, Palmer [11, 20]: 50
- Plant response rating, Pigweed, Palmer [11, 21]: 95
- Plant response rating, Dayflower, VA [12, 22]: 90
- Plant response rating, Dayflower, VA [12, 23]: 85
- Plant response rating, Dayflower, VA [12, 16]: 90
- Plant response rating, Dayflower, VA [12, 17]: 90
- Plant response rating, Dayflower, VA [12, 18]: 95
- Plant response rating, Dayflower, VA [12, 19]: 85
- Plant response rating, Dayflower, VA [12, 20]: 80
- Plant response rating, Dayflower, VA [12, 21]: 90
